Assay results from US9763957B2, “Autotaxin inhibitors” (Novartis AG, priority 2013, dated 2017).

Target: Recombinant human ATX (Homo sapiens (Human), UniProt Q13822)
Experiment: ATX inhibition assay (choline release, Amplex Red fluorescence)
Type: biochemical
Details: ATX 10 nM, LPC 18:1 10 μM, 37° C., 20 min pre-incubation; mean of n≧2
Experimental: Reagents—LPC (oleoyl (18:1)) was purchased from Avanti Polar Lipids (Alabaster, Ala.) and solubilized in methanol to 20 mM. Amplex Red was obtained from Invitrogen Life Technologies (Paisley, UK) and dissolved in DMSO to 10 mM. Choline oxidase and horseradish peroxidase (HRP) were obtained from Sigma Aldrich (Dorset, UK) and dissolved in HBSS to 20 U/ml and 200 U/ml respectively. All reagents were stored at −20° C. in single use aliquots. All experimental measurements were performed in assay buffer made up immediately prior to use (HBSS, 0.01% BSA essentially fatty acid free).
PerkinElmer EnVision (Fluorescence Intensity/Absorbance Monochromator) or Tecan Infinite 200 PRO series plate reader was used to detect change in fluorescent intensity.
Assessing ATX inhibition—ATX activity was determined by measurement of released choline in reactions containing ATX (10 nM), choline oxidase (0.1 U/ml), HRP (100 U/ml), amplex red (50 μM) and LPC 18:1 (10 μM). Compounds of the invention were prepared as 10 point serial dilutions from 1 μM in duplicate and pre-incubated with ATX at 37° C. for 20 minutes prior to the addition of remaining reagents. The liberated choline was measured from changes in fluorescence intensity (λex 530 nm, λem 590 nm) of the product resurofin at 37° C. every 2 minutes over a 40-minute period. ATX activity was measured as a slope of the linear portion of the progress curve, typically between 14 to 24 minutes.
Data analysis—Slope data was exported to Graphpad prism (Graphpad software, San Diego, Calif.) where data was fitted to equation 1. Y=Bottom+(Top-Bottom)/(1+10^((Log IC50−X)*HillSlope)) Equation 1: […]

Row | SMILES | IC50
1 | Cc1nnn(Cc2cc(Cl)ccc2/C=C/C(=O)N2CCC(O)(Cn3cc(C(=O)N4CCCCC4)cn3)CC2)n1 [Example 16, (E)-3-(4-Chloro-2-((5-methyl-2H-tetrazol-2-yl)methyl)phenyl)-1-(4-hydroxy-4-((4-(piperidine-1-carbonyl)-1H-pyrazol-1-yl)methyl)piperidin-1-yl)prop-2-en-1-one] | 11 nM
2 | Cc1nnn(Cc2cc(C(F)(F)F)ccc2/C=C/C(=O)N2CCN(Cc3coc(C)n3)C[C@H]2CO)n1 [Example 132, (S,E)-1-(2-(Hydroxymethyl)-4-((2-methyloxazol-4-yl)methyl)piperazin-1-yl)-3-(2-((5-methyl-2H-tetrazol-2-yl)methyl)-4-(trifluoromethyl)phenyl)prop-2-en-1-one] | 14 nM
3 | Cc1nnn(Cc2cc(Cl)ccc2/C=C/C(=O)N2CCC(Cc3nnc(C)o3)CC2)n1 [Example 127, (E)-3-(4-Chloro-2-((5-methyl-2H-tetrazol-2-yl)methyl)phenyl)-1-(4-((5-methyl-1,3,4-oxadiazol-2-yl)methyl)piperidin-1-yl)prop-2-en-1-one] | 60 nM
4 | Cc1nnn(Cc2cc(Cl)ccc2/C=C/C(=O)N2CCC(Oc3ccccc3C(=O)N(C)C)CC2)n1 [Example 49.13, (E)-2-((1-(3-(4-Chloro-2-((5-methyl-2H-tetrazol-2-yl)methyl)phenyl)acryloyl)piperidin-4-yl)oxy)-N,N-dimethyl benzamide] | 17 nM
5 | Cc1nnn(Cc2cc(OC(F)F)ccc2/C=C/C(=O)N2CCC(Cc3nnc(C)o3)CC2)n1 [Example 58, (E)-3-(4-(Difluoromethoxy)-2-((5-methyl-2H-tetrazol-2-yl)methyl)phenyl)-1-(4-((5-methyl-1,3,4-oxadiazol-2-yl)methyl)piperidin-1-yl)prop-2-en-1-one] | 53 nM
6 | Cc1nnn(Cc2cc(C(F)(F)F)ccc2/C=C/C(=O)N2CCN(CC(=O)OC(C)(C)C)C[C@H]2C)n1 [Example 65, (R,E)-tert-Butyl 2-(3-methyl-4-(3-(2-((5-methyl-2H-tetrazol-2-yl)methyl)-4-(trifluoromethyl)phenyl)acryloyl)piperazin-1-yl)acetate] | 5.5 nM
7 | Cc1nnn(Cc2cc(C(F)(F)F)ccc2/C=C/C(=O)N2CCC(N3CCCC3=O)CC2)n1 [Example 126, (E)-1-(1-(3-(2-((5-Methyl-2H-tetrazol-2-yl)methyl)-4-(trifluoromethyl)phenyl)acryloyl)piperidin-4-yl)pyrrolidin-2-one] | 22 nM
8 | COc1ccc(CN(C)C2CCN(C(=O)/C=C/c3ccc(C(F)(F)F)cc3Cn3nnc(C)n3)CC2)cc1 [Example 119, (E)-1-(4-((4-Methoxybenzyl)(methyl)amino)piperidin-1-yl)-3-(2-((5-methyl-2H-tetrazol-2-yl)methyl)-4-(trifluoromethyl)phenyl)prop-2-en-1-one] | 47 nM
9 | Cc1nnn(Cc2cc(Cl)ccc2/C=C/C(=O)N2CCC(NC(=O)CCCc3c[nH]nn3)CC2)n1 [Example 151, (E)-N-(1-(3-(4-Chloro-2-((5-methyl-2H-tetrazol-2-yl)methyl)phenyl)acryloyl)piperidin-4-yl)-4-(1H-1,2,3-triazol-4-yl)butanamide] | 3.1 nM
10 | CNC(=O)[C@@H]1CCCCN1C(=O)/C=C/c1ccc(C(F)(F)F)cc1Cn1nnc(C)n1 [Example 6, (S,E)-N-Methyl-1-(3-(2-((5-methyl-2H-tetrazol-2-yl)methyl)-4-(trifluoromethyl)phenyl)acryloyl)piperidine-2-carboxamide] | 18 nM
11 | CNC(=O)[C@@H]1CCCN1C(=O)/C=C/c1ccc(C(F)(F)F)cc1Cn1nnc(C)n1 [Example 90, (S,E)-N-Methyl-1-(3-(2-((5-methyl-2H-tetrazol-2-yl)methyl)-4-(trifluoromethyl)phenyl)acryloyl)pyrrolidine-2-carboxamide] | 49 nM
12 | Cc1nnn(Cc2cc(Cl)ccc2/C=C/C(=O)N2CCN(c3ncccn3)CC2)n1 [Example 49.1, (E)-3-(4-Chloro-2-((5-methyl-2H-tetrazol-2-yl)methyl)phenyl)-1-(4-(pyrimidin-2-yl)piperazin-1-yl)prop-2-en-1-one] | 20 nM
